Source: US20230210999A1, “TARGETED PROTEASE DEGRADATION (TED) PLATFORM” (EUBULUS BIOTHERAPEUTICS INC., priority 2020, published 2023)

How the values were obtained:
Format in all cases: cell-based, human
MDA-MB-231 cells = test: Cell proliferation experiment, MDA-MB-231; conditions: Homo sapiens, MDA-MB-231, MDA-MB-231 cells; read-out: Inhibitory activity IC50 on MDA-MB-231
How it was run: (§1)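 Log-phase cells were seeded in 96-well plates and exposed to compound in complete medium over a 5-fold dilution series, in duplicate, for 72 h. Alamar blue fluorescence was read per well and IC50 was obtained by four-parameter curve fitting.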

Daudi cells = test: Cell proliferation experiment, Daudi; conditions: Homo sapiens, Daudi, Daudi cells; read-out: Inhibitory activity IC50 on Daudi
How it was run: as §1

NCIH82 cells = test: Cell proliferation experiment, NCI-H82; conditions: Homo sapiens, NCI-H82, NCI-H82 cells; read-out: Inhibitory activity IC50 on NCI-H82
How it was run: as §1

PC-3 = test: Cell proliferation experiment, PC-3; conditions: Homo sapiens, PC-3, PC-3 cells; read-out: Inhibitory activity IC50 on PC-3
How it was run: as §1

MV4;11 cells = test: Cell proliferation experiment (Alamar blue, 72 h), MV4;11; conditions: Homo sapiens, MV4-11, MV4;11 cells; read-out: Inhibitory activity IC50 on MV4;11
How it was run: as §1

| SMILES | IC50 (MDA-MB-231 cells) [nM] | IC50 (Daudi cells) [nM] | IC50 (NCIH82 cells) [nM] | IC50 (PC-3) [nM] | IC50 (MV4;11 cells) [nM] |
| --- | --- | --- | --- | --- | --- |
| CNC(=O)c1ccccc1Nc1nc(Nc2ccc(N3CCN(C(=O)N[C@H]4CC[C@H](NCCC#Cc5ccc6c(c5)CN(C5CCC(=O)NC5=O)C6=O)CC4)CC3)nc2)ncc1Cl (stereo partly drawn) [UB-181174] | > 1000 | 10 to 100 | > 1000 | 10 to 100 | 10 to 100 |
| CNC(=O)c1ccccc1Nc1nc(Nc2ccc(N3CCN(C(=O)N[C@H]4CC[C@@H](N[C@H]5C[C@H](C#Cc6ccc7c(c6)CN(C6CCC(=O)NC6=O)C7=O)C5)CC4)CC3)cc2)ncc1Cl (stereo partly drawn) [UB-181181] | > 1000 | > 1000 | 100 to 1000 | 10 to 100 | 10 to 100 |
| CNC(=O)c1ccccc1Nc1nc(Nc2ccc(N3CCN(C(=O)NC4CCC(NCCC#Cc5cccc6c5CN(C5CCC(=O)NC5=O)C6=O)CC4)CC3)cc2)ncc1Cl (stereo not drawn) [UB-181187] | > 1000 | > 1000 | 100 to 1000 | 10 to 100 | 10 to 100 |
| CNC(=O)c1ccccc1Nc1nc(Nc2ccc(N3CCN(C(=O)N[C@H]4CC[C@@H](NCCC#Cc5ccc6c(c5)CN(C5CCC(=O)NC5=O)C6=O)CC4)CC3)cn2)ncc1Cl (stereo partly drawn) [UB-181188] | > 1000 | 10 to 100 | 10 to 100 | 10 to 100 | 10 to 100 |
| NC(=O)c1ccccc1Nc1nc(Nc2ccc(C3CCN(C(=O)N[C@H]4CC[C@@H](NCC(O)CC#Cc5ccc6c(c5)CN(C5CCC(=O)NC5=O)C6=O)CC4)CC3)cc2)ncc1Cl (stereo partly drawn) [UB-181194] | > 1000 | > 1000 | > 1000 | > 1000 | < 10 |

Now from value to compound:

| IC50 (MDA-MB-231 cells) [nM] | IC50 (Daudi cells) [nM] | IC50 (NCIH82 cells) [nM] | IC50 (PC-3) [nM] | IC50 (MV4;11 cells) [nM] | SMILES |
| --- | --- | --- | --- | --- | --- |
| 100 to 1000 | 100 to 1000 | 10 to 100 | 100 to 1000 | < 10 | NC(=O)c1ccccc1Nc1nc(Nc2ccc(C3CCN(C(=O)N[C@H]4CC[C@@H](NCCC#Cc5ccc6c(c5)CN(C5CCC(=O)NC5=O)C6=O)CC4)CC3)cc2)ncc1Cl (stereo partly drawn) [UB-181182] |
| 100 to 1000 | 10 to 100 | 10 to 100 | 10 to 100 | < 10 | CNC(=O)c1ccccc1Nc1nc(Nc2ccc(N3CCC(C(=O)N[C@H]4CC[C@@H](NCCC#Cc5ccc6c(c5)CN(C5CCC(=O)NC5=O)C6=O)CC4)CC3)cc2)ncc1Cl (stereo partly drawn) [UB-181184] |
| 10 to 100 | 10 to 100 | 10 to 100 | 10 to 100 | < 10 | CNC(=O)c1ccccc1Nc1nc(Nc2ccc(N3CCN(C(=O)N[C@H]4CC[C@@H](N(C)CCC#Cc5ccc6c(c5)CN(C5CCC(=O)NC5=O)C6=O)CC4)CC3)cc2)ncc1Cl (stereo partly drawn) [UB-181185] |
| 100 to 1000 | 10 to 100 | 10 to 100 | < 10 | < 10 | CNC(=O)c1ccccc1Nc1nc(Nc2ccc(N3CCC(C(=O)N[C@H]4CC[C@@H](NCCC#Cc5cccc6c5CN(C5CCC(=O)NC5=O)C6=O)CC4)CC3)cc2)ncc1Cl (stereo partly drawn) [UB-181186] |
| 10 to 100 | < 10 | 10 to 100 | < 10 | < 10 | NC(=O)c1ccccc1Nc1nc(Nc2ccc(N3CCN(C(=O)N[C@H]4CC[C@@H](NCCC#Cc5ccc6c(c5)CN(C5CCC(=O)NC5=O)C6=O)CC4)CC3)cc2)ncc1Cl (stereo partly drawn) [UB-181189] |
| 10 to 100 | 10 to 100 | 10 to 100 | 10 to 100 | < 10 | NC(=O)c1ccccc1Nc1nc(Nc2ccc(N3CCN(C(=O)N[C@H]4CC[C@@H](NCCC#Cc5cccc6c5CN(C5CCC(=O)NC5=O)C6=O)CC4)CC3)cc2)ncc1Cl (stereo partly drawn) [UB-181190] |
| 10 to 100 | 10 to 100 | 10 to 100 | 10 to 100 | < 10 | NC(=O)c1ccccc1Nc1nc(Nc2ccc(C3CCN(C(=O)N[C@H]4CC[C@@H](N[C@H]5C[C@H](C#Cc6ccc7c(c6)CN(C6CCC(=O)NC6=O)C7=O)C5)CC4)CC3)cc2)ncc1Cl (stereo partly drawn) [UB-181198] |
